Like-named read-outs stand apart in the source and are kept apart here.
Tests used:
Experiment in all cases: Test C pre-/postemergence greenhouse test, plant response rating 0-100
Assay type in all cases: in vivo
[1] = system: large (Lg) crabgrass (Digitaria sanguinalis); conditions: Digitaria sanguinalis; for pest or weed control at 500 g/ha: 500 g ai/ha
Source text: (§1) Seeds of plant species selected from blackgrass (Alopecurus myosuroides), Italian ryegrass (Lolium multiflorum), winter wheat (Triticum aestivum), galium (catchweed bedstraw, Galium aparine), corn (Zea mays), large (Lg) crabgrass (Digitaria sanguinalis), giant foxtail (Setaria faberii), johnsongrass (Sorghum halepense), lambsquarters (Chenopodium album), morningglory (Ipomoea coccinea), yellow nutsedge (Cyperus esculentus), pigweed (Amaranthus retroflexus), ragweed (common ragweed, Ambrosia elatior), soybean (Glycine max), barnyardgrass (Echinochloa crus-galli), oilseed rape (Brassica napus), waterhemp (common waterhemp, Amaranthus rudis), and velvetleaf (Abutilon theophrasti) were planted into a blend of loam soil and sand and treated preemergence with test chemicals formulated in a non-phytotoxic solvent mixture which included a surfactant.
(§2) At the same time, plants selected from these crop and weed species and also winter barley (Hordeum vulgare), bermudagrass (Cynodon dactylon), downy bromegrass (Bromus tectorum), canarygrass (Phalaris minor), cocklebur (common cocklebur, Xanthium strumarium), woolly cupgrass (Eriochloa villosa), deadnettle (henbit deadnettle, Lamium amplexicaule), green foxtail (Setaria viridis), goosegrass (Eleusine indica), surinam grass (Brachiaria decumbens), windgrass (Apera spica-venti), chickweed (common chickweed, Stellaria media), kochia (Kochia scoparia), and wild oat (Avena fatua), were planted in pots containing Redi-Earth® planting medium (Scotts Company, 14111 Scottslawn Road, Marysville, Ohio 43041) comprising spaghnum peat moss, vermiculite, wetting agent and starter nutrients and treated with postemergence applications of test chemicals formulated in the same manner. Plants ranged in height from 2 to 18 cm (1- to 4-leaf stage) for postemergence treatments. Treated plants and controls were maintained in a greenhouse for 13 to 15 days, after which time all species were compared to controls and visually evaluated. Plant response ratings, summarized in Table C, are based on a scale of 0 to 100 where 0 is no effect and 100 is complete control. A dash (-) response means no test result.

[2] = system: pigweed (Amaranthus retroflexus); conditions: Amaranthus retroflexus; for pest or weed control at 62 g/ha: 62 g ai/ha; for pest or weed control at 125 g/ha: 125 g ai/ha; for pest or weed control at 250 g/ha: 250 g ai/ha; for pest or weed control at 500 g/ha: 500 g ai/ha
Source text: as §1, §2

[3] = system: ragweed (common ragweed, Ambrosia elatior); conditions: Ambrosia artemisiifolia; for pest or weed control at 62 g/ha: 62 g ai/ha; for pest or weed control at 125 g/ha: 125 g ai/ha; for pest or weed control at 250 g/ha: 250 g ai/ha
Source text: as §1, §2

[4] = system: soybean (Glycine max); conditions: Glycine max; for plant injury at 62 g/ha: 62 g ai/ha; for plant injury at 125 g/ha: 125 g ai/ha; for plant injury at 250 g/ha: 250 g ai/ha; for plant injury at 500 g/ha: 500 g ai/ha
Source text: as §1, §2

[5] = system: velvetleaf (Abutilon theophrasti); conditions: Abutilon theophrasti; for pest or weed control at 62 g/ha: 62 g ai/ha; for pest or weed control at 125 g/ha: 125 g ai/ha; for pest or weed control at 250 g/ha: 250 g ai/ha; for pest or weed control at 500 g/ha: 500 g ai/ha
Source text: as §1, §2

[6] = system: winter wheat (Triticum aestivum); conditions: Triticum aestivum; for plant injury at 62 g/ha: 62 g ai/ha; for plant injury at 125 g/ha: 125 g ai/ha; for plant injury at 250 g/ha: 250 g ai/ha; for plant injury at 500 g/ha: 500 g ai/ha
Source text: as §1, §2

[7] = system: yellow nutsedge (Cyperus esculentus); conditions: Cyperus; for pest or weed control at 62 g/ha: 62 g ai/ha; for pest or weed control at 125 g/ha: 125 g ai/ha; for pest or weed control at 250 g/ha: 250 g ai/ha; for pest or weed control at 500 g/ha: 500 g ai/ha
Source text: as §1, §2

[8] = post-emergence, Postemergence, scale 0 to 100
[9] = post-emergence, Postemergence, read-out: Plant response rating (0 to 100), Pigweed
[10] = pre-emergence, Preemergence, read-out: Plant response rating, Pigweed
[11] = post-emergence, Postemergence, read-out: Plant response rating (0 to 100), Ragweed
[12] = pre-emergence, Preemergence, read-out: Plant response rating, Ragweed
[13] = post-emergence, Postemergence, read-out: Plant response rating (0 to 100), Soybean
[14] = pre-emergence, Preemergence, read-out: Plant response rating, Soybean
[15] = post-emergence, Postemergence, read-out: Plant response rating (0 to 100), Velvetleaf
[16] = pre-emergence, Preemergence, read-out: Plant response rating, Velvetleaf
[17] = post-emergence, Postemergence, read-out: Plant response rating (0 to 100), Wheat
[18] = pre-emergence, Preemergence, read-out: Plant response rating, Wheat
[19] = post-emergence, Postemergence, read-out: Plant response rating (0 to 100), Nutsedge, Yellow
[20] = pre-emergence, Preemergence, read-out: Plant response rating, Nutsedge, Yellow

## COC(OC)(c1ccccc1)c1c[nH]nc1-c1cc(Cl)cc(Cl)c1 [Compound 13, 3-(3,5-dichlorophenyl)-4-(dimethoxyphenylmethyl)-1H-pyrazole]
[1]; [8]
  pest or weed control at 500 g/ha: 0%
[1]; pre-emergence, Preemergence, 62 g ai/ha, read-out: Plant response rating, Crabgrass, Large
  pest or weed control at 62 g/ha: 0%
[1]; pre-emergence, Preemergence, 125 g ai/ha, read-out: Plant response rating, Crabgrass, Large
  pest or weed control at 125 g/ha: 0%
[1]; pre-emergence, Preemergence, 250 g ai/ha
  pest or weed control at 250 g/ha: 0%
[1]; pre-emergence, Preemergence
  pest or weed control at 500 g/ha: 0%
[2]; [9]
  pest or weed control at 62 g/ha: 75%
  pest or weed control at 125 g/ha: 100%
[2]; [8]
  pest or weed control at 250 g/ha: 100%
  pest or weed control at 500 g/ha: 100%
[2]; [10]
  pest or weed control at 62 g/ha: 90%
  pest or weed control at 125 g/ha: 100%
[2]; pre-emergence, Preemergence
  pest or weed control at 250 g/ha: 100%
  pest or weed control at 500 g/ha: 100%
[3]; [11]
  pest or weed control at 62 g/ha: 50%
  pest or weed control at 125 g/ha: 50%
[3]; [8]
  pest or weed control at 250 g/ha: 75%
[3]; post-emergence, Postemergence, 500 g ai/ha, scale 0 to 100
  pest or weed control at 500 g/ha: 80%
[3]; [12]
  pest or weed control at 62 g/ha: 85%
  pest or weed control at 125 g/ha: 100%
[3]; pre-emergence, Preemergence
  pest or weed control at 250 g/ha: 100%
[4]; [13]
  plant injury at 62 g/ha: 0%
  plant injury at 125 g/ha: 0%
[4]; [8]
  plant injury at 250 g/ha: 0%
  plant injury at 500 g/ha: 10%
[4]; [14]
  plant injury at 62 g/ha: 0%
  plant injury at 125 g/ha: 0%
[4]; pre-emergence, Preemergence
  plant injury at 250 g/ha: 75%
  plant injury at 500 g/ha: 60%
[5]; [15]
  pest or weed control at 62 g/ha: 70%
  pest or weed control at 125 g/ha: 75%
[5]; [8]
  pest or weed control at 250 g/ha: 85%
  pest or weed control at 500 g/ha: 80%
[5]; [16]
  pest or weed control at 62 g/ha: 60%
  pest or weed control at 125 g/ha: 85%
[5]; pre-emergence, Preemergence
  pest or weed control at 250 g/ha: 75%
  pest or weed control at 500 g/ha: 100%
[6]; [17]
  plant injury at 62 g/ha: 0%
  plant injury at 125 g/ha: 0%
[6]; [8]
  plant injury at 250 g/ha: 0%
  plant injury at 500 g/ha: 0%
[6]; [18]
  plant injury at 62 g/ha: 0%
  plant injury at 125 g/ha: 0%
[6]; pre-emergence, Preemergence
  plant injury at 250 g/ha: 0%
  plant injury at 500 g/ha: 0%
[7]; [19]
  pest or weed control at 62 g/ha: 0%
  pest or weed control at 125 g/ha: 0%
[7]; [8]
  pest or weed control at 250 g/ha: 0%
  pest or weed control at 500 g/ha: 0%
[7]; [20]
  pest or weed control at 62 g/ha: 0%
  pest or weed control at 125 g/ha: 0%
[7]; pre-emergence, Preemergence
  pest or weed control at 250 g/ha: 0%
  pest or weed control at 500 g/ha: 0%

Reference: US10167262B2, “Herbicidal substituted 3-arylpyrazoles” (FMC CORPORATION, priority 2014, dated 2019)
